Converted amounts (≈) assume the structure as drawn. “And” between values parts separate entries of the source, which are not always exact repeats. Equal values may be shown once.
Columns and labels:
Assay in all cases: ≥ marks a high value that may be exact or a test limit, other limits are often not marked, values filed in µg/mL are converted to µM
[1] = system: Pseudomonas aeruginosa ATCC 27853
[2] = system: Escherichia coli ATCC 25922
[3] = system: Staphylococcus aureus ATCC 25923

| Compound | MIC [1] | MIC [2] | MIC [3] |
| --- | --- | --- | --- |
| CC(C)C[C@H](NC(=O)[C@H](CC(C)C)NC(=O)[C@H](CCCCN)NC(=O)[C@H](CCCCN)NC(=O)[C@H](C)NC(=O)[C@H](CC(C)C)NC(=O)[C@H](CCCCN)NC(=O)[C@H](CC(C)C)NC(=O)[C@@H](N)Cc1ccccc1)C(N)=O [FLKLAKKLL] | 59.6 µM and 119 µM |  |  |
| CC(C)C[C@H](NC(=O)[C@H](Cc1c[nH]c2ccccc12)NC(=O)[C@H](C)NC(=O)CNC(=O)[C@H](Cc1c[nH]c2ccccc12)NC(=O)[C@H](CC(N)=O)NC(=O)[C@@H](N)CC(C)C)C(=O)N[C@@H](CCCCN)C(=O)N[C@@H](Cc1cnc[nH]1)C(=O)N[C@@H](Cc1c[nH]c2ccccc12)C(=O)N[C@@H](Cc1c[nH]c2ccccc12)C(=O)N[C@@H](CCCCN)C(=O)O [LNWGAWLKHWWK] | 32 µM (≈ 52 µg/mL) |  |  |
| CC[C@H](C)[C@H](NC(=O)[C@H](CC(C)C)NC(=O)[C@H](C)NC(=O)[C@@H]1CCCN1C(=O)[C@H](CC(C)C)NC(=O)CNC(=O)[C@@H](NC(=O)[C@@H](NC(=O)[C@H](CC(C)C)NC(=O)[C@@H](NC(=O)[C@H](CCCCN)NC(=O)[C@H](CCCCN)NC(=O)[C@H](C)NC(=O)[C@H](C)NC(=O)[C@H](CO)NC(=O)[C@@H](NC(=O)[C@H](CC(C)C)NC(=O)[C@H](CCCCN)NC(=O)[C@H](CCCCN)NC(=O)[C@@H](NC(=O)[C@H](Cc1ccccc1)NC(=O)[C@H](CCCCN)NC(=O)[C@H](CCCCN)NC(=O)[C@H](Cc1c[nH]c2ccccc12)NC(=O)[C@@H](N)CCCCN)[C@@H](C)CC)[C@@H](C)O)C(C)C)[C@@H](C)O)[C@@H](C)O)C(=O)N[C@@H](CO)C(=O)O [KWKKFIKKLTSAAKKVLTTGLPALIS] | 4 µM (≈ 11.5 µg/mL) |  |  |
| CC(C)C[C@H](NC(=O)[C@H](CCCCN)NC(=O)[C@H](C)NC(=O)[C@H](CC(C)C)NC(=O)[C@@H](N)CCCCN)C(=O)N[C@@H](C)C(=O)N[C@@H](CCCCN)C(N)=O [KLAKLAK] | > 95 µM | > 95 µM | > 95 µM |
| CC[C@H](C)[C@H](NC(=O)[C@H](Cc1ccc(O)cc1)NC(=O)[C@H](CCC(N)=O)NC(=O)[C@H](CC(C)C)NC(=O)[C@H](C)NC(=O)[C@H](CCCCN)NC(=O)[C@H](CCCCN)NC(=O)[C@H](CCSC)NC(=O)[C@H](CCCCN)NC(=O)[C@H](CCCCN)NC(=O)[C@H](CCCCN)NC(=O)[C@H](CCCN=C(N)N)NC(=O)[C@H](CCCN=C(N)N)NC(=O)[C@H](Cc1ccc(O)cc1)NC(=O)[C@@H](N)CCCN=C(N)N)C(=O)N[C@@H](CCCCN)C(=O)N[C@@H](CC(C)C)C(N)=O [RYRRKKKMKKALQYIKL] | > 100 µM | > 100 µM |  |
| NC(=O)[C@H](Cc1c[nH]c2ccccc12)NC(=O)[C@H](CCCN=C(N)N)NC(=O)[C@H](Cc1ccc(O)cc1)NC(=O)[C@H](CCCN=C(N)N)NC(=O)[C@H](Cc1c[nH]c2ccccc12)NC(=O)[C@@H](N)CCCN=C(N)N [RWRYRW] | 78.3 µM (≈ 79.9 µg/mL) | 48.9 µM (≈ 50 µg/mL) | 9.78 µM (≈ 9.99 µg/mL) |
| CC(C)C[C@H](NC(=O)[C@H](CC(=O)O)NC(=O)[C@@H](NC(=O)[C@H](CCCCN)NC(=O)[C@H](CC(C)C)NC(=O)[C@@H](N)CCC(N)=O)C(C)C)C(=O)N[C@@H](Cc1c[nH]c2ccccc12)C(=O)NCC(=O)N[C@H](C(=O)N[C@@H](CCCN=C(N)N)C(N)=O)[C@@H](C)O [QLKVDLWGTR] | > 100 µM | > 100 µM | > 100 µM |
| CC[C@H](C)[C@H](NC(=O)CNC(=O)[C@@H](NC(=O)[C@H](CCCCN)NC(=O)[C@@H](NC(=O)[C@H](CCCCN)NC(=O)CN)C(C)C)[C@@H](C)CC)C(=O)N[C@@H](CC(N)=O)C(=O)NCC(=O)N[C@@H](Cc1ccccc1)C(=O)NCC(=O)N[C@@H](CCCN=C(N)N)C(=O)N[C@H](C(=O)NCC(=O)N[C@@H](CCCN=C(N)N)C(=O)N[C@@H](CC(C)C)C(=O)N[C@H](C(=O)N[C@@H](C)C(=O)O)C(C)C)[C@@H](C)CC [GKVKIGINGFGRIGRLVA] |  | 69 µM (≈ 128 µg/mL) | 276 µM (≈ 512 µg/mL) |

Reference: DBAASP
